Measurements taken from US20220079944A1, “2H-INDAZOLE DERIVATIVES AS THERAPEUTIC AGENTS FOR BRAIN CANCERS AND BRAIN METASTASES” (BETA PHARMA, INC., priority 2019, published 2022).
Read-outs that look alike come from different tables or passages of the source.

Assays:
[1] = Brain concentration and brain/plasma ratio in mouse after 10 mg/kg p.o.; type: in vivo; settings: for concentration at 2 h / concentration at 4 h / concentration at 8 h / concentration at 24 h: po, 10 mg/kg
[2] = system: orthotopic U87MG-luc human glioblastoma; assay: Efficacy in combination with temozolomide against orthotopic U87MG-luc human glioblastoma in mice (bioluminescence); type: in vivo; settings: glioblastoma model, combination with TMZ
Method: An efficacy and comparison study between Compound 1 and abemaciclib, in combination with temozolomide (TMZ), against orthotopic U87MG-luc human glioblastoma in mice was conducted. In each study, TMZ was dosed PO at 6 mg/kg, QD×5, and either Compound 1 or abemaciclib was dosed PO at 100 mg/kg. Tumor growth was observed by bioluminescence. […] From a broad perspective, the significant differentiation between Compound 1 and abemaciclib in a brain disease model can be traced to their distinct molecular structures. Female Envigo Nude Mice (Hsd:Athymic Nude-Fox1^nu) were used in this study. They were 6-7 weeks old on Day 1 of the experiment. The animals were fed irradiated Harlan 2918.15 Rodent Diet and water ad libitum. Animals were housed in INNOVIVE® disposable ventilated caging with corn cob bedding inside BIOBUBBLE® Clean Rooms that provide H.E.P.A filtered air into the bubble environment at 100 complete air changes per hour. All treatments, body weight determinations, and tumor measurements were carried out in the bubble environment. […] An aliquot of the homogeneous cell suspension was diluted in a trypan blue solution and counted using a Luna automated cell counter. […] Following implantation, an aliquot of the remaining cells was diluted with a trypan blue solution and counted to determine the post-implantation cell viability. […]

[3] = target: T1, P-gp (Homo sapiens, UniProt P08183); assay: P-gp substrate potential using MDR1-MDCK monolayers (bidirectional permeability +/- valspodar); type: in vitro ADME
T1 construct: expressed in transfected cells; host or cells: MDR1-MDCK (MDCK cells expressing MDR1)
T1 sequence (P08183 whole entry): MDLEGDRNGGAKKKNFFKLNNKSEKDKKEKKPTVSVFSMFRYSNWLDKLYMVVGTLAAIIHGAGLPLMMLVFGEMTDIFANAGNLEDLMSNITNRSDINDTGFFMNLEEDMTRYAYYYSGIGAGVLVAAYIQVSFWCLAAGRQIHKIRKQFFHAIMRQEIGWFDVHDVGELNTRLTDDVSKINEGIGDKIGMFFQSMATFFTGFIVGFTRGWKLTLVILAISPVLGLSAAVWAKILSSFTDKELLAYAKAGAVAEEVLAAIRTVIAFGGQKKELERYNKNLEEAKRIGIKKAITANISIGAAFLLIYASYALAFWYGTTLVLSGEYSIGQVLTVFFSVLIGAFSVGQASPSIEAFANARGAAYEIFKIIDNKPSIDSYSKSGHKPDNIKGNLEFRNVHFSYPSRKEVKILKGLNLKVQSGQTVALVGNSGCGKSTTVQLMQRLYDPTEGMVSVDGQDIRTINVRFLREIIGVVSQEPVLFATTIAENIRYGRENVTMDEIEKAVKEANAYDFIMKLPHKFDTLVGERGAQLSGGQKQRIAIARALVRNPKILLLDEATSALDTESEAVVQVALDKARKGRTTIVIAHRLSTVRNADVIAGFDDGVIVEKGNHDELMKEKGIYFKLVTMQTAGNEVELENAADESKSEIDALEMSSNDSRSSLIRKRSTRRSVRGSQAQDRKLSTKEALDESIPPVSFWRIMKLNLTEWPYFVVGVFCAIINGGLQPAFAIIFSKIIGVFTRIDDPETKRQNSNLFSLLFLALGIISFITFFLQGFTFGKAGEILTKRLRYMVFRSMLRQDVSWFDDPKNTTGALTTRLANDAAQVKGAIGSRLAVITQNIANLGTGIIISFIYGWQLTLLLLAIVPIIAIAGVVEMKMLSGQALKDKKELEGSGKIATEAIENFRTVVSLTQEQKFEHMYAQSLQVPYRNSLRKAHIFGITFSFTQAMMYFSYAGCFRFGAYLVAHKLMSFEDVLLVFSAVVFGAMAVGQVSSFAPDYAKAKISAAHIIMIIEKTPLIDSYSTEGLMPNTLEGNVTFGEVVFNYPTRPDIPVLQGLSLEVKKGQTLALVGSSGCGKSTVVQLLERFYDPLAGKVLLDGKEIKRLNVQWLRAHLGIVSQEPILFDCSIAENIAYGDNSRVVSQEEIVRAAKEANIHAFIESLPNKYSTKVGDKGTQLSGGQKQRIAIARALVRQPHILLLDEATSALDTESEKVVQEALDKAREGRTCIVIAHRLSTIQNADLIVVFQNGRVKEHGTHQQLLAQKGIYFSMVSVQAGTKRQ
Method: The objective of this study was to determine the P-gp substrate potential of one test article using MDR1-MDCK monolayers.
Each determination was performed in duplicate. […] Analytical conditions are outlined in Appendix 1.
Papp=(dCr/dt)×Vr/(A×CA) (1)
Percent Recovery=100×((Vr×Cr^final)+(Vd×Cd^final))/(Vd×CN) (2) • where • dC/dt is the slope of the cumulative concentration in the receiver compartment versus time in μM s^−1; • Vr is the volume of the receiver compartment in cm^3; • Vd is the volume of the donor compartment in cm^3; • A is the area of the insert (1.13 cm^2 for 12-well); • CA is the average of the nominal dosing concentration and the measured 120 minute donor concentration in μM; • CN is the nominal concentration of the dosing solution in μM; • Cr^final is the cumulative receiver concentration in μM at the end of the incubation period; • Cd^final is the concentration of the donor in μM at the end of the incubation period.
Efflux ratio (ER) is defined as Papp (B-to-A)/Papp (A-to-B).

[4] = brain, PO 10 mg/kg, individual animal R1, read-out: Brain Concentration, R1 + 3n
[5] = brain, PO 10 mg/kg, individual animal R2, read-out: Brain Concentration, R2 + 3n
[6] = brain, PO 10 mg/kg, individual animal R3, read-out: Brain Concentration, R3 + 3n
[7] = brain, PO 10 mg/kg, mean, read-out: Brain Concentration, Mean PO
[8] = plasma, PO 10 mg/kg, individual animal R1, read-out: Plasma Concentration, R1 + 3n
[9] = plasma, PO 10 mg/kg, individual animal R2, read-out: Plasma Concentration, R2 + 3n
[10] = plasma, PO 10 mg/kg, individual animal R3, read-out: Plasma Concentration, R3 + 3n
[11] = plasma, PO 10 mg/kg, mean, read-out: Plasma Concentration, Mean PO

## CCN1CCN(Cc2ccc(Nc3ncc(F)c(-c4ccc5nn(C)c(C(C)C)c5c4)n3)nc2)CC1 [Compound 1, N-(5-((4-ethylpiperazin-1-yl)methyl)pyridin-2-yl)-5-fluoro-4-(3-isopropyl-2-methyl-2H-indazol-5-yl)pyrimidin-2-amine]
[1]; 10 mg/kg p.o., higher than abemaciclib
  Brain concentration relative to that of abemaciclib: approximately 3 fold
[1]; PO 10 mg/kg, brain AUC0-last / plasma AUC0-last, read-out: AUC0-last Ratio, brain/plasma (B/P) ratio
  Kp: 1.43
[1]; PO 10 mg/kg, brain, from mean concentrations
  Brain AUC0-last: 11966 ng·h/g
[1]; PO 10 mg/kg, plasma, from mean concentrations, read-out: Plasma AUC0-last
  AUC(0-t): 8380 ng·h/mL
[1]; [4]
  concentration at 2 h: 954 ng/g
  concentration at 4 h: 1190 ng/g
  concentration at 8 h: 1150 ng/g
  concentration at 24 h: 9.06 ng/g
[1]; [5]
  concentration at 2 h: 630 ng/g
  concentration at 4 h: 1060 ng/g
  concentration at 8 h: 1380 ng/g
  concentration at 24 h: 8.64 ng/g
[1]; [6]
  concentration at 2 h: 1100 ng/g
  concentration at 4 h: 1220 ng/g
  concentration at 8 h: 1220 ng/g
  concentration at 24 h: 15.8 ng/g
[1]; [7]
  concentration at 2 h: 894 ng/g
  concentration at 4 h: 1160 ng/g
  concentration at 8 h: 1250 ng/g
  concentration at 24 h: 11.2 ng/g
[1]; [8]
  concentration at 2 h: 833 ng/mL
  concentration at 4 h: 669 ng/mL
  concentration at 8 h: 868 ng/mL
  concentration at 24 h: 4.36 ng/mL
[1]; [9]
  concentration at 2 h: 500 ng/mL
  concentration at 4 h: 543 ng/mL
  concentration at 8 h: 1030 ng/mL
  concentration at 24 h: 5.3 ng/mL
[1]; [10]
  concentration at 2 h: 748 ng/mL
  concentration at 4 h: 1180 ng/mL
  concentration at 8 h: 722 ng/mL
  concentration at 24 h: 10.6 ng/mL
[1]; [11]
  concentration at 2 h: 694 ng/mL
  concentration at 4 h: 797 ng/mL
  concentration at 8 h: 873 ng/mL
  concentration at 24 h: 6.75 ng/mL
[2]
  In vivo efficacy relative to abemaciclib: superior in vivo efficacy
[3]; MDR1-MDCK monolayers, conclusion in words
  P-gp substrate: not a substrate for P-gp
[3]; MDR1-MDCK, 5 μM, +/− 1 μM valspodar
  P-gp Substrate Classification: Negative (ER≥2.0 without valspodar, and reduced by <50% with valspodar: Negative)
[3]; dog, MDCK-MDR1, pH 7.4, MDR1-MDCK, 5 μM, A-to-B, without valspodar
  recovery at 120 min, 5 μM: 22%
[3]; dog, MDCK-MDR1, pH 7.4, MDR1-MDCK, 5 μM, A-to-B, without valspodar, average, read-out: Papp AVG
  Papp A→B at 120 min, 5 μM: 5.34 ×10⁻⁶ cm/s
[3]; dog, MDCK-MDR1, pH 7.4, MDR1-MDCK, 5 μM, A-to-B, without valspodar, replicate R1, read-out: Papp R1
  Papp A→B at 120 min, 5 μM: 5.25 ×10⁻⁶ cm/s
[3]; dog, MDCK-MDR1, pH 7.4, MDR1-MDCK, 5 μM, A-to-B, without valspodar, replicate R2, read-out: Papp R2
  Papp A→B at 120 min, 5 μM: 5.43 ×10⁻⁶ cm/s
[3]; dog, MDCK-MDR1, pH 7.4, MDR1-MDCK, 5 μM, B-to-A, without valspodar
  recovery at 120 min, 5 μM: 51%
[3]; dog, MDCK-MDR1, pH 7.4, MDR1-MDCK, 5 μM, B-to-A, without valspodar, average, read-out: Papp AVG
  Papp B→A at 120 min, 5 μM: 7.77 ×10⁻⁶ cm/s
[3]; dog, MDCK-MDR1, pH 7.4, MDR1-MDCK, 5 μM, B-to-A, without valspodar, replicate R1, read-out: Papp R1
  Papp B→A at 120 min, 5 μM: 7.14 ×10⁻⁶ cm/s
[3]; dog, MDCK-MDR1, pH 7.4, MDR1-MDCK, 5 μM, B-to-A, without valspodar, replicate R2, read-out: Papp R2
  Papp B→A at 120 min, 5 μM: 8.4 ×10⁻⁶ cm/s
[3]; dog, MDCK-MDR1, pH 7.4, with valspodar 1 μM, MDR1-MDCK, 5 μM, A-to-B, + 1 μM Valspodar
  recovery at 120 min, 5 μM: 19%
[3]; dog, MDCK-MDR1, pH 7.4, with valspodar 1 μM, MDR1-MDCK, 5 μM, B-to-A, + 1 μM Valspodar
  recovery at 120 min, 5 μM: 63%
[3]; dog, pH 7.4, MDR1-MDCK, Papp (B-to-A)/Papp (A-to-B), without valspodar
  efflux ratio at 120 min, 5 μM: 1.5
